Assay results from the supplement of paper PMC10307832.

Experiments:
Assay in all cases: relative viability (nuclei count vs DMSO), 5 days (fraction); higher = more cells survive
[1] = compound: CC1(COc2ccc3c(c2)ncn3-c2ccc3cccc(N4CCC(N)CC4)c3n2)COC1 [Crenolanib] + Nc1ncn([C@H]2C[C@H](O)[C@@H](CO)O2)c(=O)n1 [Decitabine] (partner 2 µM)
Method in brief: (§1)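 One day after seeding in 1536-well plates, lung cancer cell lines were dosed by pin tool. Dosing was either single-drug or a fixed anchor-drug dose plus five library-drug doses (not always all listed) in √10 steps. After 5 days, nuclei were stained in one fix-and-stain step and counted on 4× images, and relative viability is the nuclei count of treated wells over that of vehicle wells, given as the median of duplicate plates.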

[2] = compound: O=C1NC(=O)[C@@H](c2cn3c4c(cccc24)CCC3)[C@@H]1c1c[nH]c2ccccc12 [Tivantinib] + C[C@]1(O)C[C@@H](c2nc(-c3ccc4ccc(-c5ccccc5)nc4c3)c3c(N)nccn32)C1 [Linsitinib] (partner 1 µM)
Method in brief: as §1

[3] = compound: O=C1NC(=O)[C@@H](c2cn3c4c(cccc24)CCC3)[C@@H]1c1c[nH]c2ccccc12 [Tivantinib] + O=C(CCCCCCC(=O)Nc1ccccc1)NO [Vorinostat] (partner 1 µM)
Method in brief: as §1

[4] = compound: O=C1NC(=O)[C@@H](c2cn3c4c(cccc24)CCC3)[C@@H]1c1c[nH]c2ccccc12 [Tivantinib] + O=C(c1cc(Cc2n[nH]c(=O)c3ccccc23)ccc1F)N1CCN(C(=O)C2CC2)CC1 [Olaparib] (partner 8 µM)
Method in brief: as §1

Cell Line: UMC-11
- relative viability ([1]; first compound 0.01 µM): 0.669
- relative viability ([1]; first compound 0.03162 µM): 0.578
- relative viability ([1]; first compound 0.1 µM): 0.627
- relative viability ([1]; first compound 0.3162 µM): 0.588
- relative viability ([1]; first compound 1 µM): 0.557
- relative viability ([2]; first compound 0.01 µM): 0.974
- relative viability ([2]; first compound 0.03162 µM): 0.979
- relative viability ([2]; first compound 0.1 µM): 0.943
- relative viability ([2]; first compound 0.3162 µM): 1
- relative viability ([3]; first compound 0.01 µM): 0.383
- relative viability ([3]; first compound 0.03162 µM): 0.392
- relative viability ([3]; first compound 0.1 µM): 0.328
- relative viability ([3]; first compound 0.3162 µM): 0.385
- relative viability ([4]; first compound 0.01 µM): 0.354
- relative viability ([4]; first compound 0.03162 µM): 0.341
- relative viability ([4]; first compound 0.1 µM): 0.365
- relative viability ([4]; first compound 0.3162 µM): 0.362
